Where two headings read alike, the source gives them in different places.
How the values were obtained:
[1] = system: Sprague-Dawley rats, glomerular changes; format: in vivo, rat; settings: for effect of treatment on loss of Heparan Sulfate Proteoglycan side-chain staining (mAb JM-403): rats injected with Amadori-RSA or AGE-RSA (both cases); for microalbuminuria / albuminuria: rats receiving Amadori-RSA or AGE-RSA
Experimental: Male Sprague-Dawley rats (Sasco, 100 g) were used. After a 1 week adaptation period, rats were placed in metabolic cages to obtain a 24 hour urine specimen for 2 days before administration of injections. Rats were then divided into experimental and control groups and given tail vein injections with either saline, unmodified RSA (50 mg/kg), Amadori-RSA (50 mg/kg), NaBH4-reduced Amadori-RSA (50 mg/kg), or AGE-RSA (50 mg/kg).
Rats injected with Amadori-RSA and AGE-RSA were then either left untreated, or further treated by the administration of either aminoguanidine (AG; 25 mg/kg), pyridoxamine (PM; 25 mg/kg), or a combination of AG and PM (10 mg/kg each) through the drinking water. Body weight and water intake of the rats were monitored weekly in order to adjust dosages. At the conclusion of the experimental study the rats were placed in metabolic cages to obtain 24 hour urine specimen for 2 days prior to sacrificing the animals.
After perfusion with saline, kidney sections were fixed in ice-cold 10% neutral buffered formalin. Paraffin-embedded tissue sections from all rat groups (n=4 per group) were processed for staining with Harris' alum hematoxylin and eosin (H&E), perodic acid/Schiff reagent (PAS), and alcian blue (pH 1.0 and pH 2.5) stains for histological examination. The alcian blue sections were scored by two investigators in a blinded fashion.
Parrafin-embedded sections were deparaffinized and then blocked with 10% goat serum in PBS for 30 min at room temperature. […] The sections were then rinsed for 30 min with PBS in the dark, mounted in aqueous mounting media for immunocytochemistry (Biomeda), and cover slipped. Sections were scored in a blinded fashion. Kidney sections were evaluated by the number and intensity of glomerular staining in 5 regions around the periphery of the kidney. Scores were normalized for the immunofluorescent score per 100 glomeruli with a scoring system of 0-3.
All animals studies were carried out in conformance with institutional guidelines for animal research protocols. Male Sprague-Dawley 100 g rats (Sasco Co., Omaha Nebr.) were used in these studies. After a 1 week adaptation period, rats were placed in metabolic cages for 2 days to get two 24 hour urine specimens before starting treatment. Rats were then given daily single tail vein injections for 6 weeks according to the following treatment groups: saline, unmodified RSA (50 mg/kg), Amadori-RSA (50 mg/kg), NaBH4-reduced Amadori-RSA (50 mg/kg), and AGE-RSA (50 mg/kg). Groups of rats injected with Amadori-RSA or AGE-RSA were also administered aminoguanidine (25 mg/kg/day), pyridoxamine (25 mg/kg/day), a combination of the two (10 mg/kg/day each), or with nothing added to the drinking water. Body weight and water intake of the rat were monitored weekly in order to adjust dosages. At the conclusion of the study, the rats were placed in metabolic cages for two days to get two 24 hour urine specimens before sacrificing the animals.
Total protein in urine was determined by Bio-Rad assay. Albumin in urine was determined by competitive ELISA using rabbit anti-rat serum albumin (Cappell) as primary antibody (1:2000) and goat anti-rabbit IgG (Sigma) as a secondary antibody (1:2000). Urine was tested with Multistix 8 SG (Miles) for glucose, ketone, specific gravity, blood, pH, protein, nitrite and leukocytes. Creatinine measurements were performed with a Beckman creatinine analyzer II. Intracardiac blood samples were collected before termination and were used in the determination of creatinine clearance, blood glucose (glucose oxidase, Sigma), fructosamine (nitroblue tetrazolium, Sigma), and glycated Hb (Glycotest II analytical boronate columns, Pierce).
After perfusion with saline, kidney sections were fixed in ice-cold 10% neutral buffered formalin. […]

[2] = Drug and metabolite levels in plasma and urine, STZ diabetic rat study; format: in vivo; settings: for concentration at 28 weeks / concentration at 21 week: rat, plasma, oral; for concentration at 28 weeks: diabetic animals; for concentration at 21 week: week 21, 4 animals, read-out: Pyridoxamine in plasma
Experimental: Animal studies. Diabetes was induced by a single tail vein injection of 45 mg/kg of STZ in 0.1 M sodium citrate buffer, pH 4.5. Control animals were sham injected with buffer only. Diabetes was confirmed by measuring blood glucose levels at 2 and 3 days after the STZ-injection. Animals with plasma glucose higher than 16 mM were classified as diabetic. The diabetic rats were divided randomly into an untreated diabetic group (n=12) and two diabetic treatment groups, receiving either PM (n=13) or AG (n=12) at 1 g/L in drinking water. Two non-diabetic control groups were included, one receiving no treatment (n=13), the other receiving PM(HCl)2 at 2 g/L in drinking water (n=12); the higher dose of PM in the PM-treated control group was designed to compensate, in part, for the lower water intake of non-diabetic, compared to diabetic animals. All animals were housed individually with a light dark cycle of 12 hours each, and had free access to food and water. To maintain body weight and to limit hyperglycemia, diabetic animals received 3 IU of ultralente insulin (Humulin U, Eli Lilly) three times per week; this was increased to 5 IU after week 15 to adjust for the increase in body weight.
Measurement of drug levels in plasma and urine. PM and AG concentrations in plasma were measured by reverse phase high performance liquid chromatography (RP-HPLC). PM and its B6 vitamers were assayed as described by Sampson and O'Connor (Nutrition Res. 9:259-272 (1989)) and Sakurai et al. (J. Nutr. Sci. Vitaminol. 37:341-348 (1991)), using 293/393 nm excitation and emission wavelengths. AG was quantified at 380 nm as the 4-nitrobenzaldehyde conjugate (Beaven et al. 1969. J. Pharmacol. Exp. Therapeutics 165:14-22).

[3] = Amadori-RSA injected rats, 6 weeks
[4] = rats injected with Amadori-RSA or AGE-RSA
[5] = 6 weeks, n = 4, average with standard error

In the case of `N=C(N)NN` [aminoguanidine, reference compound], the “effect of treatment on glomerular albumin cross-linking” value ([1]; AGE-RSA injected rats) is reported as “intermediate results but did not lead to statistically significant differences from either the controls or from the untreated subgroup”, the “effect of treatment on glomerular volume (GV)” value (“effect of treatment … (GV)” for short) ([1]; AGE-RSA injected rats, 6 weeks) is reported as “significant elevation in GV persisted” and the “effect of treatment on HS loss” value ([1]; Amadori-RSA injected rats) is reported as “appeared to not prevent this loss”. The “effect of treatment … (GV)” value [1, 3] was “No statistically significant differences”, the “effect of treatment on elevated glomerular staining for RSA” value [1, 4] was “not with AG” and the “effect of treatment on increase in average glomerular volume” value [1, 4] was “No effect”. For the same compound, the concentration at 28 weeks ([2]; 1 g/L in drinking water) was 87 ± 10 µM.
With `Cc1ncc(CO)c(CN)c1O` [pyridoxamine] the “Alcian Blue pH 1.0, scoring of glomerular staining (sulfated glycosaminoglycans)” value [1, 5] was 2.62 ± 0.24, the “Alcian Blue pH 2.5, scoring of glomerular staining (acidic glycosaminoglycans)” value [1, 5] was 1.56 ± 0.21 and the “HS core protein (Ab BL-31), scoring of glomerular staining” value [1, 5] was 234 ± 8. For the same compound, the “effect of treatment on glomerular albumin cross-linking” value ([1]; AGE-RSA injected rats) was “completely blocked”, the “effect of treatment … (GV)” value ([1]; AGE-RSA injected rats, 6 weeks) was “completely prevented” and the “effect of treatment on glomerular albumin cross-linking” value ([1]; Amadori-RSA injected rats) was “significantly lower cross-linking than Aminoguanidine”. For the same compound, the “effect of treatment … (GV)” value [1, 3] was “no significant changes from controls”, the “Creat C-2wk” value ([1]; creatinine clearance at 2 weeks, n = 4) was 0.66 ± 0.07 ml/(min*100g) and the “Creat C-6wk” value ([1]; creatinine clearance at 6 weeks, n = 4) was 0.66 ± 0.17 ml/(min*100g). The “effect of treatment on elevated glomerular staining for RSA” value [1, 4] was “Significant reduction of this effect”, the “effect of treatment on increase in average glomerular volume” value [1, 4] was “A significant reduction of this effect” and the “effect of treatment on reduced Heparan Sulfate Proteoglycan Core protein staining” value [1, 4] was “A reduction of this effect”. For the same compound, the “effect of treatment on loss of Heparan Sulfate Proteoglycan side-chain staining (mAb JM-403)” value [1] was “completely prevented this loss”, the “effect of treatment on loss of Heparan Sulfate Proteoglycan side-chain staining (mAb JM-403)” value ([1]; listed as PM) was “A significant reduction of this effect” and the microalbuminuria / albuminuria ([1]; 6 weeks) was “very low intra-group scatter and to the lowest means”. The microalbuminuria / albuminuria ([1]; 6 weeks, listed as PM) was “none was seen if PM was co-administered”, the “urinary PM” value ([2]; 23 weeks, PM intake 801±22 μmol/day) was 824 ± 44 µmol/day and the “plasma PM concentration” value ([2]; non-diabetic animals, PM(HCl)2 2 g/L in drinking water, from first week) was roughly 6 µM. It also gave a concentration at 21 week ([2]; 1 g/L in drinking water, Diabetic + PM (1 g/L)) of 76 ± 18 µM, a concentration at 21 week ([2]; 2 g/L in drinking water, Control + PM (2 g/L)) of 6.3 ± 2.1 µM and a concentration at 28 weeks ([2]; 1 g/L in drinking water) of 106 ± 17 µM.

— patent US6716858B1, “Methods for inhibiting diabetic complications” (Kansas University Medical Center, priority 1995, dated 2004)
